Test results published in patent US7745619B2, “Vinca derivatives” (priority 2003, dated 2010).
Like-named read-outs stand apart in the source and are kept apart here.

How the values were obtained:
MCF-7 cells = assay: MCF-7 GI50 determination (crystal violet growth inhibition); assay type: cell-based, human; conditions: Homo sapiens, MCF7, 96 h
In short: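 MCF-7 cells seeded at 2×10^4 cells/well, grown 24 h drug-free, then exposed to 10-fold compound dilutions for 4 days. Glutaraldehyde-fixed cells stained with crystal violet, absorbance read at 570 nm; GI=100×(T/T0) against day-0 control OD, GI50 from growth inhibition versus concentration plots.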

HeLa S-3 cells = assay: HeLa GI50 determination (SRB growth inhibition); assay type: cell-based, human; conditions: Homo sapiens, HeLa S3, 48 h
In short: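 Cells plated at 2×10^4/well; day-0 plate TCA-fixed, test compounds added at 10-fold dilutions for 2 days. SRB staining, absorbance at 490 nm; GI = 100×(T−T0)/(C−T0), GI50 from growth inhibition vs. concentration plots.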

[1] = read-out: MCF-7 Cells GI50 (nM)
[2] = MCF-7 cells, 4 days of treatment, crystal violet, read-out: MCF-7 Cells GI50
[3] = HeLa S-3 cells, 2 days of treatment, sulforhodamine B, read-out: HeLa Cells GI50

Structure (SMILES): CC[C@]1(O)C[C@H]2CN(CCc3c([nH]c4ccc(-c5nccs5)cc34)[C@@](C(=O)OC)(c3cc4c(cc3OC)N(C)[C@H]3[C@@](O)(C(=O)OC)[C@H](OC(C)=O)[C@]5(CC)C=CCN6CC[C@]43[C@@H]65)C2)C1 [Example 15, 12′-(2-thiazolyl) vinblastine]
- GI50 (MCF-7 cells; [1]): 100 nM
- GI50 (HeLa S-3 cells; read-out: HeLa Cells GI50 (nM)): 200 nM

Structure (SMILES): CC[C@]1(O)C[C@H]2CN(CCc3c([nH]c4ccc(C)cc34)[C@@](C(=O)OC)(c3cc4c(cc3OC)N(C=O)[C@H]3[C@@](O)(C(=O)OC)[C@H](OC(C)=O)[C@]5(CC)C=CCN6CC[C@]43[C@@H]65)C2)C1 [Example 76, 12′-methylvincristine]
- GI50 (MCF-7 cells; [2]): 3 nM
- GI50 (HeLa S-3 cells; [3]): 1 nM

Structure (SMILES): CC[C@]1(O)C[C@H]2CN(CCc3c([nH]c4ccc(C(C)=O)cc34)[C@@](C(=O)OC)(c3cc4c(cc3OC)N(C)[C@H]3[C@@](O)(C(=O)OC)[C@H](OC(C)=O)[C@]5(CC)C=CCN6CC[C@]43[C@@H]65)C2)C1 [Example 70, 12′-acetylvinblastine]
- GI50 (MCF-7 cells; [1]): 100 nM
- GI50 (HeLa S-3 cells; read-out: HeLa Cells GI50 (nM)): 200 nM

Structure (SMILES): CC[C@]1(O)C[C@H]2CN(CCc3c([nH]c4ccc(N(C)c5ccccc5)cc34)[C@@](C(=O)OC)(c3cc4c(cc3OC)N(C)[C@H]3[C@@](O)(C(=O)OC)[C@H](OC(C)=O)[C@]5(CC)C=CCN6CC[C@]43[C@@H]65)C2)C1 [Example 79, 12′-(N-methyl-N-phenylamino) vinblastine]
- GI50 (MCF-7 cells; [1]): > 1000 nM
- GI50 (HeLa S-3 cells; read-out: HeLa Cells GI50 (nM)): 700 nM

Structure (SMILES): CC[C@]1(O)C[C@H]2CN(CCc3c([nH]c4ccc(/C=C/C(=O)OC(C)(C)C)cc34)[C@@](C(=O)OC)(c3cc4c(cc3OC)N(C)[C@H]3[C@@](O)(C(=O)OC)[C@H](OC(C)=O)[C@]5(CC)C=CCN6CC[C@]43[C@@H]65)C2)C1 [Example 27, 12′-(2-tert-butoxycarbonylvinyl) vinblastine]
- GI50 (MCF-7 cells; [1]): 300 nM
- GI50 (HeLa S-3 cells; read-out: HeLa Cells GI50 (nM)): 200 nM

Structure (SMILES): CC[C@]1(O)C[C@H]2CN(CCc3c([nH]c4ccc(Nc5ccc(C(F)(F)F)cc5)cc34)[C@@](C(=O)OC)(c3cc4c(cc3OC)N(C)[C@H]3[C@@](O)(C(=O)OC)[C@H](OC(C)=O)[C@]5(CC)C=CCN6CC[C@]43[C@@H]65)C2)C1 [Example 84, 12′-(4-trifluoromethylphenylamino)vinblastine]
- GI50 (MCF-7 cells; [1]): 500 nM
- GI50 (HeLa S-3 cells; read-out: HeLa Cells GI50 (nM)): 30 nM

Structure (SMILES): CC[C@]1(O)C[C@H]2CN(CCc3c([nH]c4ccc(SC)cc34)[C@@](C(=O)OC)(c3cc4c(cc3OC)N(C=O)[C@H]3[C@@](O)(C(=O)OC)[C@H](OC(C)=O)[C@]5(CC)C=CCN6CC[C@]43[C@@H]65)C2)C1 [Example 42, 12′-(methylsulfanyl) vincristine]
- GI50 (MCF-7 cells; [2]): 3 nM
- GI50 (HeLa S-3 cells; [3]): 3 nM

Structure (SMILES): CC[C@]1(O)C[C@H]2CN(CCc3c([nH]c4ccc(SCCC(=O)OC)cc34)[C@@](C(=O)OC)(c3cc4c(cc3OC)N(C=O)[C@H]3[C@@](O)(C(=O)OC)[C@H](OC(C)=O)[C@]5(CC)C=CCN6CC[C@]43[C@@H]65)C2)C1 [Example 47, 12′-(methoxycarbonylethylsulfanyl) vincristine]
- GI50 (MCF-7 cells; [1]): 40 nM
- GI50 (HeLa S-3 cells; read-out: HeLa Cells GI50 (nM)): 20 nM

Structure (SMILES): CC[C@]1(O)C[C@H]2CN(CCc3c([nH]c4ccc(SC)cc34)[C@@](C(=O)OC)(c3cc4c(cc3OC)N(C)[C@H]3[C@@](O)(C(=O)OC)[C@H](OC(C)=O)[C@]5(CC)C=CCN6CC[C@]43[C@@H]65)C2)C1 [Example 43, 12′-(methylsulfanyl) vinblastine]
- GI50 (MCF-7 cells; [2]): 2 nM
- GI50 (HeLa S-3 cells; [3]): 0.6 nM

Structure (SMILES): CC[C@]1(O)C[C@H]2CN(CCc3c([nH]c4ccc(-c5cccc(OC)c5)cc34)[C@@](C(=O)OC)(c3cc4c(cc3OC)N(C)[C@H]3[C@@](O)(C(=O)OC)[C@H](OC(C)=O)[C@]5(CC)C=CCN6CC[C@]43[C@@H]65)C2)C1 [Example 9, 12′-(3-methoxyphenyl) vinblastine]
- GI50 (MCF-7 cells; [1]): 500 nM
- GI50 (HeLa S-3 cells; read-out: HeLa Cells GI50 (nM)): 300 nM

Structure (SMILES): CC[C@]1(O)C[C@H]2CN(CCc3c([nH]c4ccc(SCc5ccccc5F)cc34)[C@@](C(=O)OC)(c3cc4c(cc3OC)N(C=O)[C@H]3[C@@](O)(C(=O)OC)[C@H](OC(C)=O)[C@]5(CC)C=CCN6CC[C@]43[C@@H]65)C2)C1 [Example 38]
- GI50 (MCF-7 cells; [1]): 200 nM
- GI50 (HeLa S-3 cells; read-out: HeLa Cells GI50 (nM)): 100 nM

Structure (SMILES): CC[C@]1(O)C[C@H]2CN(CCc3c([nH]c4ccc(C(=O)OCC(Cl)(Cl)Cl)cc34)[C@@](C(=O)OC)(c3cc4c(cc3OC)N(C)[C@H]3[C@@](O)(C(=O)OC)[C@H](OC(C)=O)[C@]5(CC)C=CCN6CC[C@]43[C@@H]65)C2)C1 [Example 68, 12′-(2,2,2-trichloroethylcarbonyl)vinblastine]
- GI50 (MCF-7 cells; [1]): 200 nM
- GI50 (HeLa S-3 cells; read-out: HeLa Cells GI50 (nM)): 30 nM

Structure (SMILES): C=Cc1ccc2[nH]c3c(c2c1)CCN1C[C@H](C[C@@](O)(CC)C1)C[C@]3(C(=O)OC)c1cc2c(cc1OC)N(C)[C@H]1[C@@](O)(C(=O)OC)[C@H](OC(C)=O)[C@]3(CC)C=CCN4CC[C@]21[C@@H]43 [Example 25, 12′-vinylvinblastine]
- GI50 (MCF-7 cells; [2]): 9 nM
- GI50 (HeLa S-3 cells; [3]): 3 nM

Structure (SMILES): CC[C@]1(O)C[C@H]2CN(CCc3c([nH]c4cc(I)c(I)cc34)[C@@](C(=O)OC)(c3cc4c(cc3OC)N(C=O)[C@H]3[C@@](O)(C(=O)OC)[C@H](OC(C)=O)[C@]5(CC)C=CCN6CC[C@]43[C@@H]65)C2)C1 [Example 90, 12′,13′-diiodovincristine]
- GI50 (MCF-7 cells; [1]): 30 nM
- GI50 (HeLa S-3 cells; read-out: HeLa Cells GI50 (nM)): 30 nM

Structure (SMILES): CC[C@]1(O)C[C@H]2CN(CCc3c([nH]c4ccc(C#CC(C)C)cc34)[C@@](C(=O)OC)(c3cc4c(cc3OC)N(C)[C@H]3[C@@](O)(C(=O)OC)[C@H](OC(C)=O)[C@]5(CC)C=CCN6CC[C@]43[C@@H]65)C2)C1 [Example 20, 12′-(3-methylbutynyl) vinblastine]
- GI50 (MCF-7 cells; [1]): > 1000 nM
- GI50 (HeLa S-3 cells; read-out: HeLa Cells GI50 (nM)): 500 nM

Structure (SMILES): CC[C@]1(O)C[C@H]2CN(CCc3c([nH]c4ccc(-c5cccnc5)cc34)[C@@](C(=O)OC)(c3cc4c(cc3OC)N(C)[C@H]3[C@@](O)(C(=O)OC)[C@H](OC(C)=O)[C@]5(CC)C=CCN6CC[C@]43[C@@H]65)C2)C1 [Example 13, 12′-(3-pyridyl) vinblastine]
- GI50 (MCF-7 cells; [1]): 600 nM
- GI50 (HeLa S-3 cells; read-out: HeLa Cells GI50 (nM)): > 1000 nM

Structure (SMILES): CC[C@]1(O)C[C@H]2CN(CCc3c([nH]c4ccc(/C=C/C(=O)O)cc34)[C@@](C(=O)OC)(c3cc4c(cc3OC)N(C)[C@H]3[C@@](O)(C(=O)OC)[C@H](OC(C)=O)[C@]5(CC)C=CCN6CC[C@]43[C@@H]65)C2)C1 [Example 28, 12′-(2-carboxylvinyl) vinblastine]
- GI50 (MCF-7 cells; [1]): 300 nM
- GI50 (HeLa S-3 cells; read-out: HeLa Cells GI50 (nM)): 100 nM

Structure (SMILES): CC[C@]1(O)C[C@H]2CN(CCc3c([nH]c4ccc(SCc5ccccc5Cl)cc34)[C@@](C(=O)OC)(c3cc4c(cc3OC)N(C=O)[C@H]3[C@@](O)(C(=O)OC)[C@H](OC(C)=O)[C@]5(CC)C=CCN6CC[C@]43[C@@H]65)C2)C1 [Example 37, 12′-(2-chlorobenzylsulfanyl)vinblastine]
- melting point: 168 to 170 °C
- GI50 (MCF-7 cells; [1]): 200 nM
- GI50 (HeLa S-3 cells; read-out: HeLa Cells GI50 (nM)): 100 nM
